ChEMBL document CHEMBL1201862, “PubChem BioAssay data set” (2004)
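Compound exposure: 48 hours, 5 concentrations, 96-well plates. GI50 is the concentration that inhibits growth by half.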 The source made the active and inactive calls. Cut-off read from the data, not from the text of the source: active = GI50 up to about 1.1 µM and inactive = higher.

What was measured:
Test in all cases: NCI-60 cell line screen, 48 h
[1] = test system: 786-0
[2] = test system: A498
[3] = test system: A549
[4] = test system: ACHN
[5] = test system: CAKI-1
[6] = test system: CCRF-CEM
[7] = test system: COLO 205
[8] = test system: DLD-1
[9] = test system: DMS-114
[10] = test system: DU-145
[11] = test system: EKVX
[12] = test system: HCC 2998
[13] = test system: HCT-116
[14] = test system: HCT-15
[15] = test system: HL-60
[16] = test system: HOP-62
[17] = test system: HOP-92
[18] = test system: HT-29
[19] = test system: IGROV-1
[20] = test system: K562
[21] = test system: KM-20L2
[22] = test system: KM12
[23] = test system: LOX IMVI
[24] = test system: LXFL 529
[25] = test system: M14
[26] = test system: MCF7
[27] = test system: MDA-MB-231
[28] = test system: MDA-MB-435
[29] = test system: MDA-N
[30] = test system: Malme-3M
[31] = test system: NCI-H226
[32] = test system: NCI-H23
[33] = test system: NCI-H460
[34] = test system: NCI-H522
[35] = test system: NCI/ADR-RES
[36] = test system: OVCAR-3
[37] = test system: OVCAR-4
[38] = test system: OVCAR-5
[39] = test system: OVCAR-8
[40] = test system: PC-3
[41] = test system: RPMI-8226
[42] = test system: RXF 393
[43] = test system: SF-268
[44] = test system: SF-295
[45] = test system: SF-539
[46] = test system: SK-MEL-28
[47] = test system: SK-MEL-2
[48] = test system: SK-MEL-5
[49] = test system: SK-OV-3
[50] = test system: SN12C
[51] = test system: SNB-19
[52] = test system: SNB-75
[53] = test system: SNB-78
[54] = test system: SR
[55] = test system: SW-620
[56] = test system: T47D
[57] = test system: TK-10
[58] = test system: U-251
[59] = test system: UACC-257
[60] = test system: UACC-62
[61] = test system: UO-31
[62] = test system: BT-549
[63] = test system: Hs-578T
[64] = test system: MOLT-4

## CC1=NN(C(=O)c2ccccc2O)C(=O)/C1=C/c1cccc([N+](=O)[O-])c1
[1]
  GI50: 2.47 µM (inactive)
[2]
  GI50: 0.164 µM (active)
[3]
  GI50: 0.448 µM (active)
[4]
  GI50: 0.528 µM (active)
[5]
  GI50: 2.2 µM (inactive)
[6]
  GI50: 2.77 µM (inactive)
[7]
  GI50: 29 µM (inactive)
[8]
  GI50: 0.459 µM (active)
[9]
  GI50: 1.66 µM (inactive)
[10]
  GI50: 1.55 µM (inactive)
[11]
  GI50: 3.99 µM (inactive)
[12]
  GI50: 36.1 µM (inactive)
[13]
  GI50: 0.463 µM (active)
[14]
  GI50: 4.05 µM
[15]
  GI50: 1.22 µM (inactive)
[16]
  GI50: 1.23 µM (inactive)
[17]
  GI50: 1.27 µM (inactive)
[18]
  GI50: 38.7 µM (inactive)
[19]
  GI50: 0.384 µM (active)
[20]
  GI50: 0.364 µM (active)
[21]
  GI50: 15.6 µM (inactive)
[22]
  GI50: 0.703 µM (active)
[23]
  GI50: 0.695 µM (active)
[24]
  GI50: 0.451 µM (active)
[25]
  GI50: 2.37 µM (inactive)
[26]
  GI50: 2.52 µM (inactive)
[27]
  GI50: 41.8 µM (inactive)
[28]
  GI50: 0.451 µM (active)
[29]
  GI50: 0.608 µM (active)
[30]
  GI50: 21.1 µM (inactive)
[31]
  GI50: 0.274 µM (active)
[32]
  GI50: 0.753 µM (active)
[33]
  GI50: 0.658 µM (active)
[34]
  GI50: 3.99 µM (inactive)
[35]
  GI50: 6.81 µM (inactive)
[36]
  GI50: 1.87 µM (inactive)
[37]
  GI50: 3.55 µM (inactive)
[38]
  GI50: 10.4 µM (inactive)
[39]
  GI50: 0.889 µM (active)
[40]
  GI50: 7.06 µM (inactive)
[41]
  GI50: 13.3 µM (inactive)
[42]
  GI50: 0.189 µM (active)
[43]
  GI50: 1.25 µM (inactive)
[44]
  GI50: 0.507 µM (active)
[45]
  GI50: 0.377 µM (active)
[46]
  GI50: > 49.7 µM (inactive)
[47]
  GI50: 3.1 µM (inactive)
[48]
  GI50: 2.57 µM (inactive)
[49]
  GI50: 15.3 µM (inactive)
[50]
  GI50: 3.01 µM (inactive)
[51]
  GI50: 0.385 µM (active)
[52]
  GI50: 0.449 µM (active)
[53]
  GI50: > 100 µM (inactive)
[54]
  GI50: > 100 µM (inactive)
[55]
  GI50: 3.44 µM (inactive)
[56]
  GI50: 17.3 µM (inactive)
[57]
  GI50: 15.6 µM (inactive)
[58]
  GI50: 0.512 µM (active)
[59]
  GI50: 5.73 µM (inactive)
[60]
  GI50: 0.408 µM (active)
[61]
  GI50: 0.596 µM (active)

## NC(Cc1ccccc1)C(=O)OCN1C(=O)C2C3C=CC(C2C1=O)C1C2C(=O)N(COC(=O)C(N)Cc4ccccc4)C(=O)C2C31 (configuration not stated)
[1]
  GI50: 20.7 µM (inactive)
[3]
  GI50: 23.2 µM (inactive)
[4]
  GI50: 26.5 µM (inactive)
[6]
  GI50: 22.8 µM (inactive)
[7]
  GI50: 17.9 µM (inactive)
[8]
  GI50: 26.6 µM (inactive)
[9]
  GI50: 16.1 µM (inactive)
[13]
  GI50: 23 µM (inactive)
[14]
  GI50: 17.6 µM
[15]
  GI50: 32.2 µM (inactive)
[17]
  GI50: 41.8 µM (inactive)
[18]
  GI50: 31.8 µM (inactive)
[19]
  GI50: 23.9 µM (inactive)
[20]
  GI50: 29.6 µM (inactive)
[21]
  GI50: 23.9 µM (inactive)
[22]
  GI50: 20.7 µM (inactive)
[23]
  GI50: 18.7 µM (inactive)
[24]
  GI50: 20.5 µM (inactive)
[25]
  GI50: 19.5 µM (inactive)
[31]
  GI50: 27.7 µM (inactive)
[32]
  GI50: 19.9 µM (inactive)
[33]
  GI50: 16.3 µM (inactive)
[36]
  GI50: 28.4 µM (inactive)
[37]
  GI50: 23.3 µM (inactive)
[38]
  GI50: 35.5 µM (inactive)
[39]
  GI50: 20.2 µM (inactive)
[41]
  GI50: 18.7 µM (inactive)
[42]
  GI50: 22.1 µM (inactive)
[43]
  GI50: 17.4 µM (inactive)
[44]
  GI50: 41.7 µM (inactive)
[45]
  GI50: 22.5 µM (inactive)
[46]
  GI50: 18.6 µM (inactive)
[48]
  GI50: 18.2 µM (inactive)
[49]
  GI50: 27.9 µM (inactive)
[50]
  GI50: 20.8 µM (inactive)
[51]
  GI50: 43.1 µM (inactive)
[52]
  GI50: 26.2 µM (inactive)
[55]
  GI50: 23.3 µM (inactive)
[57]
  GI50: 39.2 µM (inactive)
[58]
  GI50: 17.3 µM (inactive)
[59]
  GI50: 23.2 µM (inactive)
[60]
  GI50: 20.7 µM (inactive)

## O=C(/C=C1\Nc2ccc([N+](=O)[O-])cc2N\C1=C/C(=O)c1ccc(F)cc1)c1ccc(F)cc1
[1]
  GI50: 12.9 µM (inactive)
[2]
  GI50: 19.6 µM (inactive)
[3]
  GI50: > 100 µM (inactive)
[4]
  GI50: 13.9 µM (inactive)
[62]
  GI50: 31.1 µM (inactive)
[5]
  GI50: 48.1 µM (inactive)
[6]
  GI50: 8.81 µM (inactive)
[7]
  GI50: > 100 µM (inactive)
[10]
  GI50: > 100 µM (inactive)
[11]
  GI50: 45.9 µM (inactive)
[12]
  GI50: 80 µM (inactive)
[13]
  GI50: 32.5 µM (inactive)
[14]
  GI50: 64.7 µM
[15]
  GI50: 20.7 µM (inactive)
[16]
  GI50: 7.35 µM (inactive)
[17]
  GI50: 35.1 µM (inactive)
[18]
  GI50: > 100 µM (inactive)
[63]
  GI50: 14.9 µM (inactive)
[19]
  GI50: 40 µM (inactive)
[20]
  GI50: 22.2 µM (inactive)
[22]
  GI50: > 100 µM (inactive)
[23]
  GI50: > 100 µM (inactive)
[25]
  GI50: > 100 µM (inactive)
[26]
  GI50: 52.8 µM (inactive)
[27]
  GI50: 16 µM (inactive)
[28]
  GI50: > 100 µM (inactive)
[29]
  GI50: > 100 µM (inactive)
[64]
  GI50: 17.6 µM (inactive)
[30]
  GI50: > 100 µM (inactive)
[31]
  GI50: 27.1 µM (inactive)
[32]
  GI50: 19.9 µM (inactive)
[33]
  GI50: 46.3 µM (inactive)
[34]
  GI50: 10.5 µM (inactive)
[35]
  GI50: 82 µM (inactive)
[36]
  GI50: 25 µM (inactive)
[37]
  GI50: > 100 µM (inactive)
[38]
  GI50: > 100 µM (inactive)
[39]
  GI50: > 100 µM (inactive)
[40]
  GI50: > 100 µM (inactive)
[41]
  GI50: 20.9 µM (inactive)
[42]
  GI50: 17.9 µM (inactive)
[43]
  GI50: 9.71 µM (inactive)
[44]
  GI50: 14.9 µM (inactive)
[45]
  GI50: 19.6 µM (inactive)
[46]
  GI50: > 100 µM (inactive)
[47]
  GI50: 17.2 µM (inactive)
[48]
  GI50: 78.5 µM (inactive)
[49]
  GI50: 17.9 µM (inactive)
[50]
  GI50: 90.2 µM (inactive)
[51]
  GI50: 23.1 µM (inactive)
[52]
  GI50: 15.7 µM (inactive)
[54]
  GI50: 16.8 µM (inactive)
[55]
  GI50: > 100 µM (inactive)
[56]
  GI50: 82.8 µM (inactive)
[57]
  GI50: 15.3 µM (inactive)
[58]
  GI50: 10.2 µM (inactive)
[59]
  GI50: > 100 µM (inactive)
[60]
  GI50: 29.4 µM (inactive)
[61]
  GI50: > 100 µM (inactive)
